Measurements: patent US8999956B2, “N-[(het)arylalkyl)] pyrazole(thio)carboxamides and their heterosubstituted analogues” (Bayer Intellectual Property GmbH, priority 2010, dated 2015)
Read-outs that look alike come from different tables or passages of the source.

Experiments:
[1] = system: Botrytis cinerea; assay: In vivo preventive test on Botrytis cinerea (beans)
Experimental: Solvent: 24.5 parts by weight of acetone • 24.5 parts by weight of N,N-dimethylacetamide
Emulsifier: 1 part by weight of alkylaryl polyglycol ether
To produce a suitable preparation of active compound, 1 part by weight of active compound is mixed with the stated amounts of solvent and emulsifier, and the concentrate is diluted with water to the desired concentration.
To test for preventive activity, young plants are sprayed with the preparation of active compound. After the spray coating has dried on, 2 small pieces of agar covered with growth of Botrytis cinerea are placed on each leaf. The inoculated plants are placed in a darkened chamber at 20° C. and a relative atmospheric humidity of 100%.
2 days after the inoculation, the size of the lesions on the leaves is evaluated. 0% means an efficacy which corresponds to that of the untreated control, while an efficacy of 100% means that no disease is observed.

[2] = system: Leptosphaeria nodorum; assay: In vivo preventive test on Leptosphaeria nodorum (wheat); settings: 500 ppm of active ingredient, evaluated 7-9 days after inoculation
Experimental: (§1) Solvent: 49 parts by weight of N,N-dimethylacetamide Emulsifier: 1 part by weight of alkylaryl polyglycol ether To produce a suitable preparation of active compound, 1 part by weight of active compound is mixed with the stated amounts of solvent and emulsifier, and the concentrate is diluted with water to the desired concentration. To test for preventive activity, young plants are sprayed with a preparation of active compound at the stated rate of application. One day after this treatment, the plants are inoculated with an aqueous spore suspension of Leptosphaeria nodorum.

[3] = system: Pyrenophora teres; assay: In vivo preventive test on Pyrenophora teres (barley); settings: 500 ppm of active ingredient, evaluated 7-9 days after inoculation
Method in brief: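 Preventive test: young barley plants received a water-diluted spray of compound formulated with DMF solvent plus alkylaryl polyglycol ether emulsifier, at the stated rate. Inoculation with an aqueous spore suspension of Pyrenophora teres followed one day after spraying.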

[4] = system: aflatoxines produced by Aspergillus parasiticus; assay: microbe, parasite or virus in culture; type: cell-based
[5] = system: Aspergillus parasiticus; assay: microbe, parasite or virus in culture; type: cell-based
[6] = log P by HPLC on reversed-phase column (EEC Directive 79/831 Annex V.A8); type: physicochemical
Experimental: In table 1, the log P values were determined in accordance with EEC Directive 79/831 Annex V.A8 by HPLC (High Performance Liquid Chromatography) on a reversed-phase column (C18), using the method described below: Temperature: 40° C.; […]

[7] = system: Sphaerotheca fuliginea; assay: In vivo preventive test on Sphaerotheca fuliginea (cucumber); settings: 500 ppm of active ingredient, evaluated 7 days after inoculation
Experimental: Solvent: 49 parts by weight of N,N-dimethylformamide Emulsifier: 1 part by weight of Alkylarylpolyglycolether To produce a suitable preparation of active compound, 1 part by weight of active compound is mixed with the stated amounts of solvent and emulsifier, and the concentrate is diluted with water to the desired concentration. To test for preventive activity, young plants are sprayed with the preparation of active compound at the stated rate of application. One day after this treatment, the plants are inoculated with an aqueous spore suspension of Sphaerotheca fuliginea. Then the plants are placed in a greenhouse at approximately 23° C. and a relative atmospheric humidity of approximately 70%.

[8] = system: Alternaria solani; assay: In vivo preventive test on Alternaria solani (tomato); settings: 500 ppm of active ingredient, evaluated 7 days after inoculation
Method in brief: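 Preventive set-up: Alternaria solani spores, as aqueous suspension, applied to young plants one day after spraying. Spray contained active compound formulated with N,N-dimethylformamide and emulsifier, water-diluted to the desired application rate.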

[9] = system: Puccinia triticina; assay: In vivo preventive test on Puccinia triticina (wheat)
[10] = system: Septoria tritici; assay: In vivo preventive test on Septoria tritici (wheat); settings: 500 ppm of active ingredient, evaluated 21 days after inoculation
Experimental: Solvent: 49 parts by weight of N,N-dimethylacetamide Emulsifier: 1 part by weight of alkylaryl polyglycol ether To produce a suitable preparation of active compound, 1 part by weight of active compound or active compound combination is mixed with the stated amounts of solvent and emulsifier, and the concentrate is diluted with water to the desired concentration. To test for preventive activity, young plants are sprayed with the preparation of active compound or active compound combination at the stated rate of application. After the spray coating has been dried, the plants are sprayed with a spore suspension of Septoria tritici.

[11] = system: Venturia inaequalis; assay: In vivo preventive test on Venturia inaequalis (apple scab); settings: 100 ppm of active ingredient, evaluated 10 days after inoculation
Experimental: as §1, with “Solvent: 24.5 parts by weight of acetone • 24.5” for “Solvent: 49”, “with the” for “with a”, “application.” for “application. One day after this treatment, the plants are inoculated with an aqueous spore suspension of Leptosphaeria nodorum.”

[12] = 500 ppm of active ingredient, lesion size 2 days after inoculation
[13] = Table K, 500 ppm of active ingredient, evaluated 8 days after inoculation
[14] = Table L, 500 ppm of active ingredient, lesion size 2 days after inoculation
[15] = Table L2, dose 500 ppm, comparison with des-fluoro analogues
[16] = 500 ppm of active ingredient, evaluated 8 days after inoculation
[17] = Puccinia triticina, 192 h, Table K5, dose 500 ppm, comparison with des-fluoro analogues, read-out: Efficacy
[18] = Table L5, dose 500 ppm, comparison with des-fluoro analogues

Cc1nn(C)c(F)c1C(=O)N(C1CC1)C1CCCCC1Oc1ccccc1 (centres unmarked) [compound CMP10, N-cyclopropyl-5-fluoro-1,3-dimethyl-N-(2-phenoxycyclohexyl)-1H-pyrazole-4-carboxamide, reference compound]
Efficacy [1, 12]: less than 30% | Efficacy ([1]; Table L4, dose 500 ppm, comparison with des-fluoro analogue): 29%

CC(CC1CCCCC1NC(=O)c1c(C(F)F)nn(C)c1Cl)C1CC1 (centres unmarked) [Example 328]
Efficacy [2]: 80% | Efficacy [3]: 95% | % Inhibition of Aflatoxin at 50 μM [4]: 100% | % Inhibition of fungal growth at 50 μM [5]: 91% | logP [6]: 4.28 | Efficacy [7]: 100% | Efficacy [8]: 95%

CC(CC1CCCCC1)N(C(=O)c1c(C(F)F)nn(C)c1F)C1CC1 (centres unmarked) [Example 370]
Efficacy [2]: 90% | Efficacy [3]: 100% | Efficacy [9, 13]: 90% | logP [6]: 4.36 | Efficacy [7]: 100% | Efficacy [1, 14]: 100% | Efficacy [8]: 100%

Cn1nc(C(F)F)c(C(=O)N(C2CC2)C2CCCCC2C2CCCCC2)c1F (centres unmarked) [Example 372]
Efficacy [2]: 94% | Efficacy [3]: 100% | Efficacy [9, 13]: 100% | logP [6]: 5.28 | Efficacy [7]: 100% | Efficacy [1, 14]: 91% | Efficacy [8]: 95%

Cn1nc(C(F)F)c(C(=S)N(C[Si](C)(C)Cc2ccccc2)C2CC2)c1F [Example 289]
Efficacy [2]: 95% | Efficacy [3]: 100% | logP [6]: 4.67 | Efficacy [7]: 93% | Efficacy [1, 14]: 100% | Efficacy [8]: 95%

CCC(C)C(C)N(C(=O)c1c(C(F)F)nn(C)c1F)C1CC1 (mixture of isomers) [Example 302]
Efficacy [3]: 100% | % Inhibition of Aflatoxin at 50 μM [4]: 100% | % Inhibition of fungal growth at 50 μM [5]: 100% | Efficacy [7]: 98% | Efficacy [1, 14]: 93% | Efficacy [8]: 95%

CCC1(CNC(=O)c2c(C(F)F)nn(C)c2F)CCCCC1 [Example 366]
logP [6]: 3.55 | Efficacy [1, 14]: 84% | Efficacy [8]: 90%

Cn1cc(C(=O)N(C2CC2)C2CCCCC2Cc2ccccc2)c(C(F)F)n1 (centres unmarked) [16 from WO-2010/094666, N-(2-benzylcyclohexyl)-N-cyclopropyl-3-(difluoromethyl)-1-methyl-1H-pyrazole-4-carboxamide, reference compound]
Efficacy ([9]; 100 ppm of active ingredient, evaluated 8 days after inoculation, listed as example 16 disclosed in patent application WO-2010/094666): no protection | pest or weed control at 100 ppm ([9]; Puccinia triticina, 192 h, 100 ppm of active ingredient, evaluated 8 days after inoculation, read-out: Efficacy): 0% | pest or weed control at 500 ppm ([9]; Puccinia triticina, 192 h, 500 ppm of active ingredient, evaluated 8 days after inoculation, read-out: Efficacy): < 60% | Efficacy [1, 12]: 29% | Efficacy ([1]; 500 ppm of active ingredient, lesion size 2 days after inoculation, listed as example 16 disclosed in patent application WO-2010/094666): less than 30%

Cn1nc(C(F)F)c(C(=O)N(C[Si](C)(C)Cc2cccc(Cl)c2)C2CC2)c1F [Example 291]
Efficacy [2]: 100% | Efficacy [3]: 100% | % Inhibition of Aflatoxin at 50 μM [4]: 100% | % Inhibition of fungal growth at 50 μM [5]: 100% | logP [6]: 4.44 | Efficacy [7]: 73% | Efficacy [1, 14]: 100% | Efficacy [8]: 100%

Cn1nc(C(F)F)c(C(=O)N(C[Si](C)(C)Cc2ccc(Cl)cc2Cl)C2CC2)c1F [Example 298]
Efficacy [2]: 95% | Efficacy [3]: 100% | % Inhibition of Aflatoxin at 50 μM [4]: 100% | % Inhibition of fungal growth at 50 μM [5]: 100% | logP [6]: 5.03 | Efficacy [7]: 85% | Efficacy [8]: 100%

Cn1nc(C(F)F)c(C(=O)NC2(C3CCCCC3)CC2)c1F [Example 381]
Efficacy [3]: 100% | logP [6]: 3.11 | Efficacy [7]: 95% | Efficacy [1, 14]: 88% | Efficacy [8]: 100%

Cn1cc(C(=O)N(CC2CCCCC2c2ccccc2)C2CC2)c(C(F)F)n1 (centres unmarked) [compound CMP1, N-cyclopropyl-3-(difluoromethyl)-1-methyl-N-[(2-phenylcyclohexyl)methyl]-1H-pyrazole-4-carboxamide, reference compound]
Efficacy [1, 15]: 0%

CC1CC(N(C(=O)c2c(C(F)F)nn(C)c2F)C2CC2)CC(C)(C)C1 (centres unmarked) [Example 322]
Efficacy [2]: 90% | Efficacy [3]: 100% | % Inhibition of Aflatoxin at 50 μM [4]: 100% | Efficacy [9, 13]: 95% | % Inhibition of fungal growth at 50 μM [5]: 99% | logP [6]: 4.31 | Efficacy [7]: 90% | Efficacy [8]: 90%

CC(C)CC(C)C1CCCC1NC(=O)c1c(C(F)F)nn(C)c1F (single isomer, unassigned) [Example 318]
Efficacy [2]: 70% | Efficacy [3]: 100% | % Inhibition of Aflatoxin at 50 μM [4]: 100% | % Inhibition of fungal growth at 50 μM ([5]; 50 µM): 89% | logP [6]: 4.27 isomer C | Efficacy [7]: 93% | Efficacy [8]: 90%

CC(CCc1c(Cl)cc(Cl)cc1Cl)N(C(=S)c1c(C(F)F)nn(C)c1F)C1CC1 (centres unmarked) [Example 219]
Efficacy [2]: 90% | Efficacy [3]: 100% | % Inhibition of Aflatoxin at 50 μM [4]: 81% | % Inhibition of fungal growth at 50 μM [5]: 71% | logP [6]: 5.81 | Efficacy [7]: 100% | Efficacy [8]: 95%

Cn1nc(C(F)F)c(C(=O)N(C2CC2)C2CCCCC2Oc2ccccc2)c1F (centres unmarked) [Example 247]
Efficacy [2]: 95% | Efficacy [3]: 100% | % Inhibition of Aflatoxin at 50 μM ([4]; 50 µM): 93% | Efficacy [9, 13]: 100% | % Inhibition of fungal growth at 50 μM ([5]; 50 µM): 78% | logP [6]: 4.21 | Efficacy [7]: 100%

CC(N(C(=O)c1c(C(F)F)nn(C)c1Cl)C1CC1)C(C)(C)Cc1ccccc1 (centres unmarked) [Example 10]
Efficacy [3]: 95% | logP [6]: 4.27 | Efficacy [1, 14]: 85% | Efficacy [8]: 90%

Cc1nn(C)c(F)c1C(=O)N(C1CC1)C1CCCC(c2ccccc2)C1 (centres unmarked) [compound CMP2, N-cyclopropyl-5-fluoro-1,3-dimethyl-N-(3-phenylcyclohexyl)-1H-pyrazole-4-carboxamide, reference compound]
Efficacy [9, 16]: no protection | pest or weed control at 500 ppm [9, 17]: 0% | Efficacy [1, 18]: 5%

Cc1nn(C)c(F)c1C(=O)N(CC1CCCCC1c1ccccc1)C1CC1 (centres unmarked) [compound CMP9, N-cyclopropyl-5-fluoro-1,3-dimethyl-N-[(2-phenylcyclohexyl)methyl]-1H-pyrazole-4-carboxamide, reference compound]
Efficacy [1, 15]: 13%

CC(CC(C)(C)C)C1CCCCC1NC(=O)c1c(C(F)F)nn(C)c1F (single isomer, unassigned) [Example 361]
Efficacy [10]: 100% | Efficacy [3]: 95% | % Inhibition of Aflatoxin at 50 μM [4]: 100% | Efficacy [9, 13]: 90% | % Inhibition of fungal growth at 50 μM ([5]; 50 µM): 84% | Efficacy [11]: 88% | logP [6]: 4.89 isomer B | Efficacy [7]: 91% | Efficacy [8]: 95%

Cn1cc(C(=O)N(C2CC2)C2CCCC(c3ccccc3)C2)c(C(F)F)n1 (centres unmarked) [compound CMP3, N-cyclopropyl-3-(difluoromethyl)-1-methyl-N-(3-phenylcyclohexyl)-1H-pyrazole-4-carboxamide, reference compound]
Efficacy [9, 16]: no protection | pest or weed control at 500 ppm [9, 17]: 0% | Efficacy [1, 18]: 0%
